The experiment concerns HIV-1. The class given is cell-based. Particulars: for Inhibition Ratio (Number of viral particles/ml in control)/(Number with drug added): 1 μg/ml test compound mixed with HIV-1 (10^5 infectious units) at 37° C. for 2 hours, cells cultured six days; for viral inactivation (in words): at these concentrations (1 μg/ml). As to the method:
HIV-1 (10^5 infectious units) was mixed with 1 μg/ml of test compound at 37° C. for 2 hours. Test cells were innoculated with the mixture for two hours. The cells were then washed three times with PBS and cultured for six days.

Consider Dextran sulfate, for which the “Inhibition Ratio (Number of viral particles/ml in control)/(Number with drug added)” value was found to be 1 and the “viral inactivation (in words)” value is recorded as “do not show significant activation”.
Taken in the same sequence, the figures for pentosan sulfate [Pentosan Sultate] were 1 and “do not show significant activation”.

These data come from US6399355B1 (priority 1995, dated 2002).
